Laboratory results from ChEMBL document CHEMBL1201862, “PubChem BioAssay data set” (2004).
The source made the active and inactive calls.

Tests used:
[1] = system: Escherichia coli; experiment: microbe, parasite or virus in culture
[2] = inhibitors of intracellular T. cruzi replication, confirmation, NIH3T3 host cells, beta-gal luminescence (AID 2044); format: functional, cell-based;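 note: intracellular parasites grown in NIH/3T3 mouse fibroblasts as host cells; luminescent beta-galactosidase reporter signal from transgenic T. cruzi replicating inside host cells; inhibitors lower the luminescence signal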
[3] = cytotoxicity toward NIH3T3 fibroblasts, dose response, counter-screen, cell-based, ATP luminescence, mouse fibroblasts (AID 2010); format: functional;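 note: cells exposed to compound for about 90 hours before reading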
[4] = biological target: T1, Bcl-2-related protein A1 (Mus musculus, UniProt Q07440); format: functional;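 note: confirmatory dose–response counterscreen on Bfl-1, used to check hits from a UBC13 polyubiquitin inhibitor campaign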
T1 sequence (Q07440 whole entry): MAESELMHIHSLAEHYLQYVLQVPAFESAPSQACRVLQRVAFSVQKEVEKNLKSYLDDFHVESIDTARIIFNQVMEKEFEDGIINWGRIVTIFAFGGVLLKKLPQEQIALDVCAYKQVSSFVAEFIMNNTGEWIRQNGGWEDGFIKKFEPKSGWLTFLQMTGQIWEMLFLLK

[5] = biological target: T2, Ubiquitin-conjugating enzyme E2 N (Homo sapiens, UniProt P61088); format: functional
T2 sequence (P61088 whole entry): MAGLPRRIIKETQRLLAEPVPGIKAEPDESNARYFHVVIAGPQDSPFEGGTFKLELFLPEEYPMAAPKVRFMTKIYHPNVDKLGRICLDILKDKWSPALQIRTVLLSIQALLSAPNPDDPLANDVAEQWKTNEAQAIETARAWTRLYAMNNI

[6] = biological target: T2, Ubiquitin-conjugating enzyme E2 N; format: functional; remark: listed apart in the source
[7] = biological target: T3, Microphthalmia-associated transcription factor (Homo sapiens, UniProt O75030); experiment: TRPM1 promoter luciferase signal decrease, dose response, MITF inhibitor project, cell-based, SK-MEL-5, cherry-picked, set 3 (AID 493073); format: functional
T3 sequence (O75030 whole entry): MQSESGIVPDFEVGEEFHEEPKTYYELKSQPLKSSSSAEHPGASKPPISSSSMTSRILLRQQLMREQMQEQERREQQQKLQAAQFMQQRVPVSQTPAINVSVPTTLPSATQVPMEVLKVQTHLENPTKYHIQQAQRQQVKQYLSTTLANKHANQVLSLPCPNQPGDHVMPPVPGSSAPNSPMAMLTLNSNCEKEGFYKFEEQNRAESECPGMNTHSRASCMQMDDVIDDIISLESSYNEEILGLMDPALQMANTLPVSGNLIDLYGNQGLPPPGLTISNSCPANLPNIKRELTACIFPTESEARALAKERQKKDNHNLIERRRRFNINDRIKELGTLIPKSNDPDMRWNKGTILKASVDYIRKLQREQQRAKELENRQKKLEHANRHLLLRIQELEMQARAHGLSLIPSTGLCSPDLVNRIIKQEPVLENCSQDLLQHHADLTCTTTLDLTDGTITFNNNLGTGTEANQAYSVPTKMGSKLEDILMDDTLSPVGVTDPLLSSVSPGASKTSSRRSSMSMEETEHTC

[8] = cytotoxicity in HEK-293T cells, dose response, cytotoxicity control for BCR NF-kB inhibitor project, luminescence, B-cell screen hits (AID 489021); format: functional, cell-based;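 note: HEK-293T cells carrying an NF-kB luciferase reporter; cells exposed to compound for about 14 hours before viability readout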
[9] = system: INS1; experiment: beta cell apoptosis inhibitors, cytokine rescue, dose response, luminescence, retest (AID 449756); format: functional, cell-based; conditions: Rattus norvegicus;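 note: cell death triggered by IL-1 beta plus TNF-alpha plus IFN-gamma mixture; protective hits raise ATP signal compared with cytokine alone wells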
[10] = system: A-375; experiment: A375 melanoma cell viability reduction, dose response, counter-screen for MITF modulator project, cherry-pick samples, set 2 (AID 540335); format: functional, cell-based; conditions: Homo sapiens
[11] = biological target: T4, Caspase-3 (Homo sapiens, UniProt P42574); format: functional;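 note: Dose-response selectivity test against caspase-3 for candidate inhibitors of sentrin-specific proteases (SENPs)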
T4 sequence (P42574 whole entry): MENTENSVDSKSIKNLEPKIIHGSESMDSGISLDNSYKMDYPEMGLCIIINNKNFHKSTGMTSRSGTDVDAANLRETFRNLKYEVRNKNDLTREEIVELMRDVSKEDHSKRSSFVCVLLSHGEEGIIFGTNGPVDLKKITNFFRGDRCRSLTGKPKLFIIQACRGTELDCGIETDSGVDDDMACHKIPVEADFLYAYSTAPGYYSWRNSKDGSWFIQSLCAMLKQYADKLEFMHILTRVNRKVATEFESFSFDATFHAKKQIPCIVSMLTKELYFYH

[12] = biological target: T5, Sentrin-specific protease 7 (Homo sapiens, UniProt Q9BQF6); format: functional;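 note: Luminescence-based dose-response confirmation of ultra-high-throughput screening hits, measuring inhibition of SENP7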
T5 sequence (Q9BQF6 whole entry): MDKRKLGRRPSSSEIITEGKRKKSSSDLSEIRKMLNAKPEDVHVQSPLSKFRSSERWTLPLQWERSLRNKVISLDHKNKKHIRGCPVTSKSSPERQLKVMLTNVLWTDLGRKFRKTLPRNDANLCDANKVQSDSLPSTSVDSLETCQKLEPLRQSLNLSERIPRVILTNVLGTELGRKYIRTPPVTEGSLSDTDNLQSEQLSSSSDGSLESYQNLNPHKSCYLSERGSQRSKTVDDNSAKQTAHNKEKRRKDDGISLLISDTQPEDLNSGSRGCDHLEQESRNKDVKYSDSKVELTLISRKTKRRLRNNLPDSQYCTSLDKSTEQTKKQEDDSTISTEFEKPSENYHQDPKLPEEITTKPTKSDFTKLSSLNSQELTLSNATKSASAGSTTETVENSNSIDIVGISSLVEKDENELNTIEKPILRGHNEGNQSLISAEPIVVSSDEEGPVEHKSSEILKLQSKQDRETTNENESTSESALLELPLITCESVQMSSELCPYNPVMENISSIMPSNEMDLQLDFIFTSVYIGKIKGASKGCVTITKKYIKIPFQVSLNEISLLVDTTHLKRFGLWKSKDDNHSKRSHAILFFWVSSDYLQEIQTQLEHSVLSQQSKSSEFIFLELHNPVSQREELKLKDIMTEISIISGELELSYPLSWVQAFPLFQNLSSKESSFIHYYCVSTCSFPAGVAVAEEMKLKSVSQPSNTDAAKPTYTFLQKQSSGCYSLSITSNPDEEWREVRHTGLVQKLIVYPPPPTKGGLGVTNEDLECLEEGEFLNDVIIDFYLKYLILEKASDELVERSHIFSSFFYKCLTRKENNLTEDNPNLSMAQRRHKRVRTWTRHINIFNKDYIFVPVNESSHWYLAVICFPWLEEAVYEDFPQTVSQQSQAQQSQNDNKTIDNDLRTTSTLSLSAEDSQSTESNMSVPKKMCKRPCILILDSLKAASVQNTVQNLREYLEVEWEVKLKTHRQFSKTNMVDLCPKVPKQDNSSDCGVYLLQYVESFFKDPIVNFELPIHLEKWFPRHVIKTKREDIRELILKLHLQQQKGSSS

[13] = biological target: T6, Sentrin-specific protease 6 (Homo sapiens, UniProt Q9GZR1); format: functional;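 note: Luminescence-based dose-response confirmatory assay of SENP6 inhibition, following up an ultra-high-throughput screen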
T6 sequence (Q9GZR1 whole entry): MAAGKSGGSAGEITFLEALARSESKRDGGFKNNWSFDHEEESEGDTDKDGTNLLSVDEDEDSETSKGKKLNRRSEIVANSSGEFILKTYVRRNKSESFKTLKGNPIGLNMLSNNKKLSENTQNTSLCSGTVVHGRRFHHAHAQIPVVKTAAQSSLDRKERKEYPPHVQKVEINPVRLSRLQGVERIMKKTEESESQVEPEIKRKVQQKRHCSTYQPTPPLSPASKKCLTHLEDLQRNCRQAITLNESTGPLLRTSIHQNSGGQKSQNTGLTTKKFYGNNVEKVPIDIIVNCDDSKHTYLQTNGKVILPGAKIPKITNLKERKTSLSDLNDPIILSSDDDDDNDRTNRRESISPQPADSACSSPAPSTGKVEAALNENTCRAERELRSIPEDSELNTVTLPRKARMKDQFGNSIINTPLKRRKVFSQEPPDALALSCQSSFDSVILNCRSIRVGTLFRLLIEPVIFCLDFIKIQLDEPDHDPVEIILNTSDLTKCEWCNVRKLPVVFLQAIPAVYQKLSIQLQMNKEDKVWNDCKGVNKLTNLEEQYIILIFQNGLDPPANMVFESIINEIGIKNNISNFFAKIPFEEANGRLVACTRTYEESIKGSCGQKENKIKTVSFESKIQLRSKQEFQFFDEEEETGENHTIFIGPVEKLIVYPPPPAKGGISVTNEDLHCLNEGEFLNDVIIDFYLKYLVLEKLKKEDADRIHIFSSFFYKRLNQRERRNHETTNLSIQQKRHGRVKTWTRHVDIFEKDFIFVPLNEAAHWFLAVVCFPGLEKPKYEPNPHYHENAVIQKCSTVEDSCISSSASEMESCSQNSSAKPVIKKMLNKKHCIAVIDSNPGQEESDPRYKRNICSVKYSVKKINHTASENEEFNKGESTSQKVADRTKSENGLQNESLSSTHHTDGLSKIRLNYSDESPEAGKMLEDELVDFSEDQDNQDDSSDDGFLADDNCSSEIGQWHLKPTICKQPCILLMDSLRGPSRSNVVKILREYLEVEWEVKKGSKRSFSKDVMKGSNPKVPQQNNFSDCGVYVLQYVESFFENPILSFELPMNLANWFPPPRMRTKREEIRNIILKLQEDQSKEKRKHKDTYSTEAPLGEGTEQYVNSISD

[14] = biological target: T7, Sentrin-specific protease 8 (Homo sapiens, UniProt Q96LD8); format: functional;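 note: luminescence read-out of SENP8 inhibition, dose-response confirmation following an ultra-high-throughput screen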
T7 sequence (Q96LD8 whole entry): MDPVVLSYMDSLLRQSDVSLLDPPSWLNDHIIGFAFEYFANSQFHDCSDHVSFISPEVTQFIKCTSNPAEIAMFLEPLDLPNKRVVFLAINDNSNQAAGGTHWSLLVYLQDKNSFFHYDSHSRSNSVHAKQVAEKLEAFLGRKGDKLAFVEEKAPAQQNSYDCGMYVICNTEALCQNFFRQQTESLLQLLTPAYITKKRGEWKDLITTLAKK

[15] = system: HeLa; experiment: HeLa cell cytotoxicity, dose response, cytotoxicity control for MITF activator project, CellTiter-Glo luminescence, cherry-pick samples (AID 540259); format: functional, cell-based; conditions: Homo sapiens
[16] = biological target: Beta-galactosidase (Escherichia coli, UniProt Q8VNN2); experiment: PubChem AID 485352; format: functional
[17] = biological target: T8, Type-1 angiotensin II receptor (Homo sapiens, UniProt P30556); experiment: AT1 receptor antagonists, dose response, selectivity assay for APJ receptor antagonist project, cell-based, uHTS hits (AID 463214); format: functional;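 note: antagonist potency against angiotensin II stimulated AT1 response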
T8 sequence (P30556 whole entry): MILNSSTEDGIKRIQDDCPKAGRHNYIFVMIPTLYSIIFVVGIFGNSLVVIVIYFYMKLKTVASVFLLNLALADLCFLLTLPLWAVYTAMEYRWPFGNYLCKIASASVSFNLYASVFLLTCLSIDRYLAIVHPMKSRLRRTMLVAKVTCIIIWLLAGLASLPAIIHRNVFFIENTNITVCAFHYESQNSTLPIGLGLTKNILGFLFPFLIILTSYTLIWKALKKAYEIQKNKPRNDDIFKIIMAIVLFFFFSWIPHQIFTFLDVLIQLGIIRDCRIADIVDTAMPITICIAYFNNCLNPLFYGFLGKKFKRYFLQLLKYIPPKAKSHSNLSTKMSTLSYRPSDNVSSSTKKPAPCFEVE

[18] = biological target: Tumor necrosis factor (Homo sapiens, UniProt P01375); experiment: TNFa-triggered NF-kB activation inhibitors, SAR follow-up, cell-based, revised (AID 2337); format: functional
[19] = biological target: T9, Nucleotide-binding oligomerization domain-containing protein 1 (Homo sapiens, UniProt Q9Y239); experiment: NOD1 signaling inhibitors, SAR follow-up, revised (AID 2333); format: functional
T9 sequence (Q9Y239 whole entry): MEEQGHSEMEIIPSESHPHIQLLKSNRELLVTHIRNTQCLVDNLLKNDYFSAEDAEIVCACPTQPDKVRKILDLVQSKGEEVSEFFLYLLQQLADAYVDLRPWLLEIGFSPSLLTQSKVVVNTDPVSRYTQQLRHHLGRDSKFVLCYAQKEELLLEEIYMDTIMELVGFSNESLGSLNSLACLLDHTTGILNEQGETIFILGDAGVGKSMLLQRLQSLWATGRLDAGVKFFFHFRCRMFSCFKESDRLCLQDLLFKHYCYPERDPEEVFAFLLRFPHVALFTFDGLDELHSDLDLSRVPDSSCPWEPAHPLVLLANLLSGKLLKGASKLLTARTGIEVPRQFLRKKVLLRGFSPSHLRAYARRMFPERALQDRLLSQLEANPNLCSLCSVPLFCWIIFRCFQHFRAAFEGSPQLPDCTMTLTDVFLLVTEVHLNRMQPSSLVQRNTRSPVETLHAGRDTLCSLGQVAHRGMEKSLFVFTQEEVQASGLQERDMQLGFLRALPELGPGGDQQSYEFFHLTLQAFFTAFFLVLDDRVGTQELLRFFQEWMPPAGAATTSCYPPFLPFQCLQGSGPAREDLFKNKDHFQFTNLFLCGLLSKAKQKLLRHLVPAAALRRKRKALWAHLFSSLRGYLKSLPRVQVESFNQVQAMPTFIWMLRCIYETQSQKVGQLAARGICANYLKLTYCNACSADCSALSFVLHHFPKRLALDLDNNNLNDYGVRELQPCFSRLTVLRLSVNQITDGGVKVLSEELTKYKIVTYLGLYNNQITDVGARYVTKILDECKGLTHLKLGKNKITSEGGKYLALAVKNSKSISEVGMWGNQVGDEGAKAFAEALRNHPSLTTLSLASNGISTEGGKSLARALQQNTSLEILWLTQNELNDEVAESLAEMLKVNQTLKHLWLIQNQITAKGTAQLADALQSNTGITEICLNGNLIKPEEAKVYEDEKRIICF

[20] = system: HEK293; experiment: cells; conditions: Homo sapiens;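 note: cells exposed to compound for 14 hours overnight before viability readout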

Chain of Beta-galactosidase (Q8VNN2 whole entry): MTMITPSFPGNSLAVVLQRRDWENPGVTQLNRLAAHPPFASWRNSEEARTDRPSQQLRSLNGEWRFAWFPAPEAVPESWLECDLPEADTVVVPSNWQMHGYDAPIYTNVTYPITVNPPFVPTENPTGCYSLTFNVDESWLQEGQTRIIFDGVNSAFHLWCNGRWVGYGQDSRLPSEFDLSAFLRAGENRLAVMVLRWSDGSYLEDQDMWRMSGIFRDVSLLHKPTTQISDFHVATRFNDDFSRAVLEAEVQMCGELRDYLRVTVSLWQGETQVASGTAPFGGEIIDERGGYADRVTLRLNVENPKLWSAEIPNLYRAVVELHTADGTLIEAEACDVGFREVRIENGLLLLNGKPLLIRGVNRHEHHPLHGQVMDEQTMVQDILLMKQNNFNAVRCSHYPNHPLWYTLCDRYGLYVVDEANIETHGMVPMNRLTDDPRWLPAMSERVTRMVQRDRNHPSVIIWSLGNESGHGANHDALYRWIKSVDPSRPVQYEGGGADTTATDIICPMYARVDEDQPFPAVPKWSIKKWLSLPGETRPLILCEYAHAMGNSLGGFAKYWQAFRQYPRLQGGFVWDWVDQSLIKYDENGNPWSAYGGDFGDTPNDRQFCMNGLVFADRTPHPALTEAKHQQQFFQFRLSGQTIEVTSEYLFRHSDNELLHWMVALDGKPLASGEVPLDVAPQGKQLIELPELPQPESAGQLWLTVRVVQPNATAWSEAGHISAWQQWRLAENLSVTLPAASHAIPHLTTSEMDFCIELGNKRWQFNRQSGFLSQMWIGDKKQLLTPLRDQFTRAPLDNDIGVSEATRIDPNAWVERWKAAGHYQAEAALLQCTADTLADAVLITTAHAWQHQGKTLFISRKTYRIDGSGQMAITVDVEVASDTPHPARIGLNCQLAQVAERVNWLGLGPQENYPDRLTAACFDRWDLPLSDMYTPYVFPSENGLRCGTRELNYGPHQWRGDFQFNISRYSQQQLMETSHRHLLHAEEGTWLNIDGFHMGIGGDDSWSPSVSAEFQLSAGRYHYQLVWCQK
Chain of Tumor necrosis factor (P01375 whole entry, the tested form may be a part): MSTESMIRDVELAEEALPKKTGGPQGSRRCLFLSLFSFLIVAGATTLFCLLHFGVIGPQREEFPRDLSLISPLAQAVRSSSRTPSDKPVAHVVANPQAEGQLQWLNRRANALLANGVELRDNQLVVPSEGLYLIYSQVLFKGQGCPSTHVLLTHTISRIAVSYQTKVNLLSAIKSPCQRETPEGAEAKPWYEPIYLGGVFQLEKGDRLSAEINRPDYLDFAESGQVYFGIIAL

With `CCOc1ccc(NC(=O)CNC(=O)Cc2ccccc2)cc1` the AC50 [1] was 25 µM (active).

For `CCC(C)(C)c1ccc(OCCCC[n+]2ccccc2)c(C(C)(C)CC)c1`, the EC50 [2] was 0.357 µM (active), the EC50 [3] was 19.7 µM (active) and the IC50 [4] was > 20 µM (inactive). The IC50 [5] was 16.9 µM (active), the IC50 [6] was 17.3 µM (active) and the AC50 [7] was 4.35 µM (active). For the same molecule, the IC50 [8] was 59.7 µM (inactive), the AC50 [9] was 2 µM (active) and the AC50 [10] was 22.9 µM (active).

With `Fc1ccccc1CSc1nnc(-c2ccccc2)o1` the IC50 [11] was 32 µM (active), the IC50 [12] was 12 µM (active) and the IC50 [13] was 36.1 µM (active). The IC50 [14] was 53 µM (active) and the AC50 [15] was 74 µM (active).

With `NNc1nc(-c2ccccc2)cc(-c2ccc(Br)cc2)n1` the EC50 [16] was > 40 µM (inactive) and the IC50 [17] was 2.09 µM (active).

For `COc1ccc2oc(C[S+]([O-])c3ccccc3)c(C(=O)O)c2c1` (configuration not stated), the IC50 [18] was > 20 µM (inactive), the IC50 [19] was > 20 µM (inactive) and the IC50 [20] was > 20 µM (inactive).

For `CCOC(=O)C1(c2nc(N)cs2)COC(=O)C1` (configuration not stated), the AC50 [1] was 24.9 µM (active).

For `COC(=O)Cn1c(C)nc2c(sc3nc(C)cc(C)c32)c1=O`, the AC50 [15] was > 350 µM (inactive).
